How the values were obtained:
Type in all cases: organism-based
[1] = tested on: Zea mays; test: Toxicity in Zea mays GG214 (maize) assessed as plant height at 25 g ai/ha applied shortly post-emergence at three to five-leaf stage using backpack sprayer measured after 21 days (Rvb =81 cm); conditions: in vivo, other, 504 h
[2] = tested on: Zea mays; test: Toxicity in Zea mays GH2684 (maize) assessed as plant height at 50 g ai/ha applied shortly post-emergence at three to five-leaf stage using backpack sprayer measured after 21 days (Rvb =73 cm); conditions: in vivo, other, 504 h
[3] = tested on: Zea mays; test: Toxicity in Zea mays GH2041 (maize) assessed as visible injury at 50 g ai/ha applied shortly post-emergence at three to five-leaf stage using backpack sprayer measured after 14 days; conditions: in vivo, other, 336 h
[4] = tested on: Zea mays; test: Toxicity in Zea mays GG214 (maize) assessed as visible injury at 25 g ai/ha applied shortly post-emergence at three to five-leaf stage using backpack sprayer measured after 28 days; conditions: in vivo, other, 672 h
[5] = tested on: Zea mays; test: Toxicity in Zea mays GG214 (maize) assessed as cob size at 50 g ai/ha applied shortly post-emergence at three to five-leaf stage using backpack sprayer (reference value: 292 g); conditions: in vivo, other
[6] = tested on: Zea mays; test: Toxicity in Zea mays GH2547 (maize) assessed as plant height at 50 g ai/ha applied shortly post-emergence at three to five-leaf stage using backpack sprayer measured after 21 days (Rvb =80 cm); conditions: in vivo, other, 504 h
[7] = tested on: Zea mays; test: Toxicity in Zea mays GH2684 (maize) assessed as cob size at 50 g ai/ha applied shortly post-emergence at three to five-leaf stage using backpack sprayer (reference value: 340 g); conditions: in vivo, other
[8] = tested on: Zea mays; test: Toxicity in Zea mays GH2547 (maize) assessed as cob size at 25 g ai/ha applied shortly post-emergence at three to five-leaf stage using backpack sprayer (reference value: 315 g); conditions: in vivo, other
[9] = tested on: Zea mays; test: Toxicity in Zea mays GH2041 (maize) assessed as visible injury at 25 g ai/ha applied shortly post-emergence at three to five-leaf stage using backpack sprayer measured after 7 days; conditions: in vivo, other, 168 h
[10] = tested on: Zea mays; test: Toxicity in Zea mays GH2041 (maize) assessed as visible injury at 50 g ai/ha applied shortly post-emergence at three to five-leaf stage using backpack sprayer measured after 28 days; conditions: in vivo, other, 672 h
[11] = tested on: Zea mays; test: Toxicity in Zea mays GG214 (maize) assessed as plant height at 50 g ai/ha applied shortly post-emergence at three to five-leaf stage using backpack sprayer measured after 21 days (Rvb =81 cm); conditions: in vivo, other, 504 h
[12] = tested on: Zea mays; test: Toxicity in Zea mays GG446 (maize) assessed as plant height at 25 g ai/ha applied shortly post-emergence at three to five-leaf stage using backpack sprayer measured after 21 days (reference value: 85 cm); conditions: in vivo, other, 504 h
[13] = tested on: Zea mays; test: Toxicity in Zea mays GG446 (maize) assessed as visible injury at 25 g ai/ha applied shortly post-emergence at three to five-leaf stage using backpack sprayer measured after 14 days; conditions: in vivo, other, 336 h
[14] = tested on: Zea mays; test: Toxicity in Zea mays Empire (maize) assessed as visible injury at 50 g ai/ha applied shortly post-emergence at three to five-leaf stage using backpack sprayer measured after 28 days; conditions: in vivo, other, 672 h
[15] = tested on: Zea mays; test: Toxicity in Zea mays GG214 (maize) assessed as visible injury at 25 g ai/ha applied shortly post-emergence at three to five-leaf stage using backpack sprayer measured after 14 days; conditions: in vivo, other, 336 h
[16] = tested on: Zea mays; test: Toxicity in Zea mays GH2684 (maize) assessed as plant height at 25 g ai/ha applied shortly post-emergence at three to five-leaf stage using backpack sprayer measured after 21 days (Rvb =73 cm); conditions: in vivo, other, 504 h
[17] = tested on: Zea mays; test: Toxicity in Zea mays Empire (maize) assessed as cob size at 25 g ai/ha applied shortly post-emergence at three to five-leaf stage using backpack sprayer (reference value: 304 g); conditions: in vivo, other
[18] = tested on: Zea mays; test: Toxicity in Zea mays GG446 (maize) assessed as visible injury at 25 g ai/ha applied shortly post-emergence at three to five-leaf stage using backpack sprayer measured after 7 days; conditions: in vivo, other, 168 h
[19] = tested on: Zea mays; test: Toxicity in Zea mays GG214 (maize) assessed as marketable yield at 50 g ai/ha applied shortly post-emergence at three to five-leaf stage using backpack sprayer (reference value: 14.2 T/ha ); conditions: in vivo, other
[20] = tested on: Zea mays; test: Toxicity in Zea mays GH2041 (maize) assessed as plant height at 50 g ai/ha applied shortly post-emergence at three to five-leaf stage using backpack sprayer measured after 21 days (Rvb =80 cm); conditions: in vivo, other, 504 h
[21] = tested on: Zea mays; test: Toxicity in Zea mays GH2041 (maize) assessed as cob size at 25 g ai/ha applied shortly post-emergence at three to five-leaf stage using backpack sprayer (reference value: 285 g); conditions: in vivo, other
[22] = tested on: Zea mays; test: Toxicity in Zea mays GH2547 (maize) assessed as visible injury at 25 g ai/ha applied shortly post-emergence at three to five-leaf stage using backpack sprayer measured after 28 days; conditions: in vivo, other, 672 h
[23] = tested on: Zea mays; test: Toxicity in Zea mays GH2298 (maize) assessed as marketable yield at 50 g ai/ha applied shortly post-emergence at three to five-leaf stage using backpack sprayer (reference value: 16.9 T/ha ); conditions: in vivo, other
[24] = tested on: Zea mays; test: Toxicity in Zea mays GG446 (maize) assessed as marketable yield at 25 g ai/ha applied shortly post-emergence at three to five-leaf stage using backpack sprayer (reference value: 20.0 T/ha ); conditions: in vivo, other
[25] = tested on: Zea mays; test: Toxicity in Zea mays Empire (maize) assessed as plant height at 25 g ai/ha applied shortly post-emergence at three to five-leaf stage using backpack sprayer measured after 21 days (Rvb =73 cm); conditions: in vivo, other, 504 h
[26] = tested on: Zea mays; test: Toxicity in Zea mays GG446 (maize) assessed as cob size at 25 g ai/ha applied shortly post-emergence at three to five-leaf stage using backpack sprayer (reference value: 379 g); conditions: in vivo, other
[27] = tested on: Zea mays; test: Toxicity in Zea mays GG446 (maize) assessed as visible injury at 50 g ai/ha applied shortly post-emergence at three to five-leaf stage using backpack sprayer measured after 7 days; conditions: in vivo, other, 168 h
[28] = tested on: Zea mays; test: Toxicity in Zea mays Empire (maize) assessed as reduction in marketable yield at 50 g ai/ha applied shortly post-emergence at three to five-leaf stage using backpack sprayer; parameters: scale not given: the % may be the effect or the level left; conditions: in vivo, other
[29] = tested on: Zea mays; test: Toxicity in Zea mays GH2547 (maize) assessed as plant height at 25 g ai/ha applied shortly post-emergence at three to five-leaf stage using backpack sprayer measured after 21 days (Rvb =80 cm); conditions: in vivo, other, 504 h
[30] = tested on: Zea mays; test: Toxicity in Zea mays GG214 (maize) assessed as visible injury at 50 g ai/ha applied shortly post-emergence at three to five-leaf stage using backpack sprayer measured after 28 days; conditions: in vivo, other, 672 h

For COc1cc(OC)nc(NC(=O)NS(=O)(=O)c2c(C(=O)O)c(Cl)nn2C)n1 [HALOSULFURON], the Activity [1] was 77 cm, the Activity [2] was 73 cm and the Activity [3] was 2%. The Activity [4] was 0%, the Activity [5] was 287 g and the Activity [6] was 79 cm. It also gave an Activity [7] of 321 g, an Activity [8] of 310 g and an Activity [9] of 1%. The Activity [10] was 0%, the Activity [11] was 75 cm and the Activity [12] was 81 cm. It also gave an Activity [13] of 0%, an Activity [14] of 1% and an Activity [15] of 0%. For the same compound, the Activity [16] was 76 cm, the Activity [17] was 299 g and the Activity [18] was 0%. The Crop_yield [19] was 13.3 tons/ha, the Activity [20] was 77 cm and the Activity [21] was 273 g. The Activity [22] was 0%, the Crop_yield [23] was 15.7 tons/ha and the Crop_yield [24] was 19.3 tons/ha. The Activity [25] was 69 cm, the Activity [26] was 370 g and the Activity [27] was 0%. For the same compound, the Activity [28] was 21%, the Activity [29] was 78 cm and the Activity [30] was 1%.

Reference: ChEMBL document CHEMBL3046257, “Response of sweet maize (Zea mays L.) hybrids to halosulfuron” (Crop Prot, 2008)
